Entries after “also recorded” stand apart in the source; their conditions may differ.
Key:
[1] = tested on: BM-induced experimental pulmonary fibrosis in mice; assay: BM-induced pulmonary fibrosis: markers in bronchoalveolar lavage cells/fluid (qPCR, ELISA); type: in vivo
Experimental: Fresh water and folate-deficient diet were freely available.
Bronchoalveolar lavage fluid (BALF) was then analyzed to determine how the targeted TLR7 agonist works. BALF samples were centrifuged at 1500 rpm for 5 min at 4° C. and the supernatant was aliquoted and stored at −80° C. for cytokine/chemokine analyses. Cell pellets were resuspended and cultured in pre-warmed RPMI 1640 medium for 2 hours and then washed 3× with pre-warmed PBS prior to harvesting for qPCR assay. The right lung was then tied with a nylon string and used for subsequent analysis of hydroxyproline content. The left lung was inflated with 1 ml PBS using the inserted syringe and transferred to 10% formalin solution for subsequent histological analyses.
CCL18 and IL-1β were quantified in induced THP-1 cell supernatants using a human DuoSet ELISA Development System (R&D Systems Europe, Abingdon, UK; #DY394-05) and an IL-1 beta Human ELISA Kit (Thermo Fisher Scientific, Waltham, MA; #BMS224-2) as described by manufactures. BALF samples were analyzed for mouse IFN-γ using ELISA MAX™ Deluxe (Biolegend, San Diego, CA; #430804).

[2] = tested on: BM-induced experimental pulmonary fibrosis in mice
Experimental: Studies were also performed to determine if macrophages in pulmonary fibrotic lungs might be specifically targeted with folate-linked drugs in vivo. […] (The BM model is widely regarded to be helpful in terms of enabling mechanistic investigations relevant to fibrogenesis in an in vivo context.)
More specifically, eight-week-old C57BL6 male mice from Charles River (average weight 22 g to 25 g) were housed under pathogen-free conditions at room temperature (22° C.) under a 12 hours light-dark cycle. Mice were placed on a folate deficient chow (Envigo Teklad Global Rat Food Pellets) for 1 week prior to the BM or PBS instillation. Fresh water and folate-deficient diet were freely available. All animal procedures were approved by the Purdue Animal Care and Use Committee in accordance with National Institute of Health guidelines.
Thereafter, the mice were anesthetized with ketamine/xylazine and the necks of the mice were shaved using hair remover lotion and then sterilized with 70% alcohol. A small incision was made on the neck to visualize the trachea. Mice were positioned at a 75-degree angle and injected intratracheally with 100 μL sterile PBS or BM (Cayman Chemicals, Ann Arbor, MI; #13877) dissolved in PBS (0.75 mg/kg) using a 1 cc syringe with 26 G needle. Body weights were monitored every other day throughout the experiment.
Lobes of the right lung collected above were weighed, placed in a pressure-tight vial (Supelco Inc., Bellefonte, PA; #27003), and hydrolyzed with 6N HCl (10 ml/g, v/w) in a sand bath at 120° C. for 3.5 hours. The hydrolyzed solution was cooled at 4° C. for 15 min and transferred to a 1.5 ml Eppendorf tube prior to centrifugation at 12,000 rcf for 15 min at 4° C. Supernatant was carefully collected, aliquoted and used for hydroxyproline (HYP) analysis.
For the subsequent HYP analysis, 10 μl of sample was transferred into a 96-well plate and neutralized with 10 μl of 5.3 M sodium hydroxide solution. Isopropanol (40 μl) was then added to each well followed by 20 μl of oxidation buffer and the mixture was incubated on a shaker at room temperature for 5 min. Analytical reagent (260 μl) was added, and the plate was incubated on a shaker at room temperature for 30 seconds and incubated immediately at 60° C. for 25 min. The absorbance was measured at 560 nm (A560) within 15 min. All reagents were prepared according to a previously reported protocol.
For histological analysis of the lung sections, fixed lungs (see above) were embedded in paraffin, sectioned and stained with hematoxylin-eosin (H&E), Masson's trichrome or F3 (anti-mouse FRβ antibody). Tissue sections were examined in a blinded manner by a licensed pathologist. More than 90×10^6 cells were quantified per section using Aperio-Image Scope (Leica Biosystems, Wetzlar, DE).
For this, BM-treated mice were intravenously injected every other day beginning on day 10 with either vehicle (3% DMSO in PBS) or Compound 1B (see FIG. 8A). […] In BM-induced experimental pulmonary fibrosis in mice, inflammation is known to persist for about 9-10 days after BM installation. Because, inflammation to fibrosis switch happens in this model approximately day 9 to day 14, and profibrotic markers start appearing at about day 10, dosing began on day 10 (FIG. 8A).
Two doses were given every other day till day 21. The individual doses on a day are separated by 6 hours to prevent any “tolerance” to TLR agonists. Mice were then sacrificed on day 21 and subjected immediately to bronchoalveolar lavage followed by resection of the lungs for immunohistochemistry and quantitation of collagen and hydroxyproline.

[3] = tested on: M2-induced human monocyte-derived macrophages; assay: Reprogramming of M2-induced human monocyte-derived macrophages with FA-glucosamine competition; type: cell-based; details: 100 nM, 2 hours then 46 hours without drug
Experimental: Changes in both sets of cytokines were inhibited by blockade of unoccupied folate receptors with excess FA-glucosamine (2+46 h, competition).

[4] = Stability during incubation in culture media; type: physicochemical; details: 37° C. in the culture media, 48 hours
Experimental: Indeed, Compound 1B retained the original structure after 48 hours incubation.

healthy mice = assay: Plasma cytokine levels in healthy mice after tail vein injection; type: in vivo
Experimental: (FIGS. 20A-C) Measurement of plasma IL-6 (FIG. 20A), IFNα (FIG. 20B) and TNFα (FIG. 20C) (n=3). (FIGS. 20D-F). The effect of drug concentration on plasma levels of IL-6 (FIG. 20D), IFNα (FIG. 20E), and TNFα (FIG. 20F) was determined at 1.5 h, 1 h, or 1 h after treatment, respectively (n=2) (FIG. 20G).

[5] = BALF cells day 21, i.v. every other day from day 10

Structure (SMILES): CCCCc1nc2c(N)nc3ccccc3c2n1CC(C)(C)OC(=O)OCCSSCC(NC(=O)CCC(NC(=O)c1ccc(NCc2cnc3nc(N)[nH]c(=O)c3n2)cc1)C(=O)O)C(=O)O (stereo not shown) [Compound 1B]
- CD86 transcripts (antifibrotic marker, qPCR) ([1]; BALF cells day 21): upregulated; also recorded: elevated
- IRAK-4 ([1]; BALF cells day 21): upregulated; also recorded: upregulation
- Arg1 (profibrotic marker, qPCR) [1, 5]: downregulated; also recorded: suppressed
- MMP9 (profibrotic marker, qPCR) [1, 5]: downregulated; also recorded: suppressed
- TIMP 3 (profibrotic marker, qPCR) [1, 5]: downregulated; also recorded: suppressed
- IFN-γ concentration (ELISA of lavage fluid) ([1]; day 21): upregulated; also recorded: elevated
- total number of BALF cells ([1]; different doses): decreased in a dose-dependent manner
- lung histology with increasing dose ([2]; 1, 3, 10 nmol): lung histology improved
- order of efficacy on lung hydroxyproline content ([2]; day 21): 10 nmol/mouse>3 nmol/mouse>1 nmol/mouse>0 nmol/mouse
- anti-fibrotic response, lung sections stained DAPI, anti-F4/80, anti-CD206 ([2]; differences between treated groups): robust anti-fibrotic response
- collagen stain, Masson's trichrome ([2]; tail vein injection): strongly suppressed
- lung histology, H&E staining ([2]; treated beginning on day 10): lung architecture that resembles that of healthy mice
- downregulation of biomarkers in presence of excess FA-glucosamine (competitor) [3]: blocked
- stability during incubation [4]: remained stable
- systemic cytokine release (plasma IL-6, IFNα, TNFα) (healthy mice; 10 nmol tail vein): does not
- inflammatory cytokine release, dose comparison (healthy mice; effect of drug concentration): stimulates less inflammatory cytokine release than half the dose of Compound 1A

— US12397059B2, “Compounds and methods for the treatment and prevention of fibrotic disease states and cancer” (Purdue Research Foundation, priority 2019, dated 2025)
